Legend:
[1] = system: ATM-deficient mice; experiment: Lifespan of ATM-deficient mice injected weekly; type: in vivo; conditions: ATM-deficient mice injected every week during most of their lifespans
From the text: It is speculated that this is because the primary screen applied was against radiation-induced toxicity as well as genotoxicity which causes cancer. Researchers involved in other labs were screening only against radiation-induced toxicity and thereby cells with genotoxicity survive and cause even more cancer and late effects of which surviving mice died. In our experiments, however, a screen against radiation induced toxicity as well as genetic instability made sure that the surviving cells also had no genetic instability which otherwise would have led to an increase in cancer and other diseases. In the experiment, ATM-deficient mice injected every week with YEL002 during most of their lifespans lived 33% longer than without injections.

[2] = system: Covid virus; type: in vivo; conditions: compared with without YEL002
[3] = Case studies and patient testimonials; type: in vivo, human
[4] = Solubility of the powder; type: physicochemical; conditions: off-white powder
Protocol: The compound takes the appearance of an off-white powder and is fat soluble. One takes an eighth teaspoon or about 0.5 g dissolved in a couple of teaspoons of oil. In an exemplary embodiment, it is dissolved in grape seed or any other appropriate oil and taken twice a day, once in the morning and once in the evening. It is easy to use and has almost no taste.

[5] = Effects on pets (cats); type: in vivo; conditions: cats after treatment
Protocol: Effects on pets. My cats, Susie and Celine were the sweetest cats before I started to treat them. But after treatment they are now even sweeter, cuddlier and more attached to me, and sleep 2 hours longer per day. I call them lap cats now like the dog pendant. They lost loofiness, shyness to new visitors, quietly sit next to each other and licking each other or me and just want to sit close to me or on my lap and be petted. Before after 5 to 10 minutes of petting they just left and did something else. Now they stay for hours and the only reason for them to leave is when I stop petting them. And they are even better at play and jump exactly, landing where they intend to, don't bump into things and catch the toys the first time every time.

[6] = system: irradiated mice; experiment: Radiation mitigation in mice irradiated with an LD100; type: in vivo
[7] = system: three different cancer cell lines; experiment: Radiation killing of cancer cell lines; type: cell-based
From the text: (§1) It is also observed that three different cancer cell lines were not protected from radiation killing by YEL002, which indicates a use in radiation oncology or chemotherapy where the tumor can still be killed by the radiation, or chemotherapy but YEL002 protects the rest of the body from radiation or chemotherapy damage, and inhibits secondary carcinogenesis.

[8] = Side effects and blood thinning; type: in vivo
Protocol: Thus, if nose bleeding occurs at that dose when blowing one's nose, one should reduce the dose to half and nose bleeding will stop within about 12 hours or less. Once the flue or sneezing is gone one may increase the dose again.
as §1

[9] = system: human keratinocytes; experiment: Proteomics study of protein induction; type: cell-based
From the text: In terms of mechanism of action in a proteomics study, the chemical was capable of inducing 244 different proteins in human keratinocytes, which comprised anti-inflammatory proteins, DNA repair proteins, and 9 neuroprotective proteins. It is known that turtles at the Galapagos Islands live 150 or more years without cancer and have multiple copies of DNA repair genes and anti-inflammatory genes. The compound boosts the expression of these genes in mammals. Since it induces DNA repair and is anti-inflammatory, it may be possible to prevent and cure many diseases and extend the life.
A direct effect of YEL002 on the autonomic or sympathetic nervous system, the flight or fight response, which can explain all the effects that we find.

[10] = PHQ-9 assessment of a patient with recalcitrant depression; type: in vivo, human
Protocol: If they work at all, improvements take at least 4 weeks and may increase patient weight. In this patient's assessment using a standard PHQ-9 form, the patient was assessed before and after treatment with YEL002. The PHQ-9 form assigns a numerical value corresponding to the level of depression, meaning a higher level means increased depression values. In this patient, before treatment, the values was in 3 different instances 6, 9 and 15 with designation of “very difficult” and “extremely difficult” and they cried 3 times during 30 minutes of our interview and said they hate the world. Before the test indicates mild depression to moderately severe depression. […] Since there is no lower designation this indicates no depression. This is also called snapping out of depression, which was a technical term in the past because it was not observed before now.

[11] = system: lymphoma; experiment: Lymphoma incidence in mice (National Institute of Health experiment); type: in vivo; conditions: radiation exposure caused 90% to develop lymphoma without treatment
Protocol: In another experiment at the National Institute of Health, in other mice after radiation exposure which caused 90% of them to develop lymphoma, there was a reduction of the lymphoma incidence to 40% and the spontaneous frequency was reduced from 10-20% down to 0%. […] This was observed after treating mice right after birth, if humans are treated later in life it is possible that only 10 or 5 years are added and probably more for DNA repair deficient diseases like ataxia telangiectasia (ATM) which is still very substantial, especially, since it treats and reduces the likelihood of many diseases.

[12] = Clinical trial on psychological, psychiatric and memory loss endpoints; type: in vivo, human
From the text: 7 less argumentative, 10 less angry or aggressive. 8 experienced better quality sleep. 8 needed less sleep and 5 became nicer. It gets rid of addictions and reduces symptoms of depression and Alzheimer's disease.

[13] = heavy smoker, one week after treatment
[14] = subject on chemotherapy, one week on YEL002

COc1ccc2cc(-c3nc4ccc(C)cn4c3NCc3ccco3)c(=O)[nH]c2c1 [YEL002]
lived longer than without injections [1]: 33%
clearance of Covid virus [2]: cleared faster
memory of patient with Alzheimer's disease ([3]; after 4 weeks treatment): improved
cholesterol ([3]; after two days of treatment): normal
symptoms of coughing and diarrhea ([3]; case study, used for eight weeks): reduced symptoms of coughing and diarrhea
allergic attacks such as sneezing and runny nose ([3]; dissolved in oil, nose spray 2-4 times a day): completely prevented
hair loss [3, 13]: completely stopped
smoker's legs oozing lymph liquid [3, 13]: completely healed
astigmatism fixed ([3]; in only 4 weeks): 1
eye-sight deficiency fixed ([3]; in only 4 weeks): 2 diopters
coughing and wheezing symptoms post-chemotherapy ([3]; one hour after treatment): completely alleviated
blood ([3]; patient testimonial): thinner
major arguments with spouse ([3]; patient with long COVID19 and diabetes, 5-10 before treatment): 0-1 per day
memory of another person ([3]; remembers where they left their car): much improved
vomiting under chemotherapy [3, 14]: completely stopped
weight gained [3, 14]: 2 kg
levels of liver damage ([3]; twice elevated for 25 years, after two days of treatment): normal and below the cutoff
alcohol addiction ([3]; two alcoholics): completely cured
periodontics or receding gums ([3]; user study): healed
solubility [4]: fat soluble
cats sleep longer [5]: 2 hours per day
survival of irradiated mice ([6]; LD100 radiation, IP injection 24 hours after radiation and another four doses in 24 hours intervals, without it 100% died after 10 to 15 days): 100%
life span of surviving irradiated mice ([6]; many of the surviving mice, normal life span): more than 2 years
protection of cancer cell lines from radiation killing [7]: not protected
blood-thinning; nose bleeding at the dose ([8]; about 1 gram per day, nose bleeding stops within about 12 hours or less at half dose): blood-thinning properties
side effects ([8]; in vivo): no side effects
number of different proteins induced ([9]; human keratinocytes, anti-inflammatory, DNA repair and neuroprotective proteins): 244 proteins
number of neuroprotective proteins/functions induced ([9]; proteomics): 9
PHQ-9 value after treatment ([10]; after one week on YEL002, the following two weeks, before treatment 6, 9 and 15): 3
PHQ-9 difficulty designation after treatment ([10]; before treatment very difficult and extremely difficult): somewhat difficult
recalcitrant depression outcome ([10]; person with depression for 20 years, within one week): completely cured
lymphoma incidence after radiation exposure [11]: 40%
became nicer [12]: 5 people
experienced better quality sleep [12]: 8 people
felt more energetic [12]: 10 people
less angry or aggressive [12]: 10 people
less argumentative [12]: 7 people
less combative [12]: 7 people
less tired [12]: 5 people
needed less sleep [12]: 8 people

— patent publication US20240325375A1, “Effect of YEL002 on Psychological and Psychiatric Factors in Health and Disease” (RadMit, Inc., priority 2023, published 2024)
